{"source": "patent US8063101B2", "about": "“Carotenoid analogs and derivatives for the prevention of platelet aggregation” (Cardax Pharmaceuticals, Inc., priority 2007, dated 2011)", "key": {"platelet aggregation": {"system": "platelet aggregation", "assay": "Ex vivo platelet aggregation induced with ADP or AA", "type": "in vivo, beagle dogs", "experimental": "Whole blood (10 ml) was drawn from a right femoral vein cannula into a plastic syringe containing 3.7% sodium citrate as the anticoagulant (1:100 volume ratio of citrate to blood). A whole blood cell count was determined with an H-2000 cell counter (Texas International Laboratories, Inc., Culver City, Calif.). Platelet-rich plasma (PRP), the supernatant present after centrifugation of whole blood at 100×g for 10 min, was diluted with Platelet-poor plasma (PPP) to achieve a platelet count of approximately […]. PPP was prepared by centrifuging the remaining blood at 1,500×g for 10 min and discarding the bottom cellular layer. Ex vivo platelet aggregation was assessed by established spectrophotometric methods with the use of a four-channel aggregometer (BioData PAP-4; BioData Corp., Horsham, Pa.) by recording the increase in light transmission through a stirred suspension of PRP maintained at 37° C. Aggregation was induced with ADP (20 μM) or AA (0.65 mM). A subaggregatory concentration of epinephrine (550 nM) was used to prime the platelets before addition of the agonists to induce platelet aggregation. Values for platelet aggregation are expressed as percentage of light transmission standardized to PRP and PPP samples yielding 0 and 100% light transmission, respectively."}, "Tongue bleeding time": {"assay": "Tongue bleeding time", "type": "in vivo, beagle dogs", "conditions": "DDA 10, 30 or 50 mg/kg followed by rt-PA", "experimental": "Tongue bleeding time (BT) was determined with the use of a SurgiCut™ (International Technidyne Corp, Edison, N.J.) device that makes a uniform incision 5 mm long and 1 mm deep on the upper surface of the tongue. The tongue lesion was blotted with filter paper every 20 sec until the transfer of blood to the filter paper was no longer apparent. The interval, from the time of the tongue incision until the time that blood was no longer transferred to the filter paper, was recorded as the tongue bleeding time."}, "Aqueous dispersibility": {"assay": "Aqueous dispersibility", "type": "physicochemical", "conditions": "sterile-filtered deionized water", "description": "In some embodiments, highly water-dispersible C40 carotenoid derivatives may include natural source RRR-lutein (β,ε-carotene-3,3′-diol) derivatives. Derivatives may be synthesized by esterification with inorganic phosphate and succinic acid, respectively, and subsequently converted to the sodium salts. Deep orange, evenly colored aqueous suspensions were obtained after addition of these derivatives to USP-purified water. […] Aqueous suspensions may be obtained without the addition of heat, detergents, co-solvents, or other additives.\nDisodium disuccinate astaxanthin (DDA; see FIG. 1B) was synthesized from commercially available crystalline astaxanthin (Buckton Scott, India) as previously described in Frey, et al. (“The efficient synthesis of disodium disuccinate astaxanthin (Cardax).” Org Process Res Dev 8: 796-801, 2004.). The final product purity was 97% (as area under the curve) by HPLC analysis. DDA was dissolved directly in sterile-filtered deionized water. The maximum aqueous dispersibility of DDA is approximately 10 mM, or 8.64 mg/ml. Vehicle consisted of isotonic sterile 0.9% NaCl solution."}}, "note": "Several values for one entry are separate records, joined by “and”; a condition that tells them apart may be missing. Equal entries are not always repeated.", "data": [{"smiles": "CC1=C(/C=C/C(C)=C/C=C/C(C)=C/C=C/C=C(C)/C=C/C=C(C)/C=C/C2=C(C)C(=O)C(OC(=O)CCC(=O)O)CC2(C)C)C(C)(C)CC(OC(=O)CCC(=O)O)C1=O", "note": "(stereo not shown) [DDA, Disodium disuccinate astaxanthin]", "values": [{"measurement": "ex vivo platelet aggregation responses to AA and ADP", "setting": "platelet aggregation; DDA 10, 30 or 50 mg/kg, ADP 20 μM or AA 0.65 mM", "result": "dose dependently attenuated"}, {"measurement": "ex vivo platelet aggregation", "setting": "platelet aggregation; DDA 30 and 50 mg/kg doses", "result": "Significant reductions"}, {"measurement": "tongue template bleeding time, baseline vs after drug treatment", "setting": "Tongue bleeding time", "result": "similar"}, {"measurement": "maximum aqueous dispersibility", "setting": "Aqueous dispersibility", "result": "approximately 10 mM and ~8.64 mg/ml"}]}]}
